Data taken from PubChem BioAssay AID330 (DTP/NCI, 2004).
Where “and” joins values, the source holds several entries; their conditions need not be identical. Equal entries are not always repeated. Toxic doses and inconclusive results are not listed.

System: P388 leukemia ip, CD2F1 mice, survival T/C
Test: NCI In Vivo Anticancer Drug Screen. Data for tumor model P388 Leukemia (intraperitoneal) in CD2F1 (CDF1) mice
Conditions: endpoint: median survival time, higher = longer survival
Procedure, shortened: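 Mice carrying the transplanted tumor received test compound or vehicle. Survival was recorded in each group, and the value is the treated-group measurement divided by that of the vehicle-treated control group.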

[1] = dose: 50.0 mg/kg/injection, schedule: Q01DX005 (ip), vehicle: saline with Tween-80
[2] = dose: 100.0 mg/kg/injection, schedule: Q01DX009 (ip), vehicle: saline
[3] = dose: 200.0 mg/kg/injection, schedule: Q01DX009 (ip), vehicle: saline
[4] = dose: 100.0 mg/kg/injection, schedule: Q01DX005 (ip), vehicle: saline with Tween-80
[5] = dose: 200.0 mg/kg/injection, schedule: Q01DX005 (ip), vehicle: saline with Tween-80
[6] = dose: 50.0 mg/kg/injection, schedule: Q01DX005 (ip), vehicle: Klucel (hydroxypropylcellulose) (HPC)
[7] = dose: 60.0 mg/kg/injection, schedule: Q01DX005 (ip), vehicle: Klucel (hydroxypropylcellulose) (HPC)
[8] = dose: 120.0 mg/kg/injection, schedule: Q01DX005 (ip), vehicle: Klucel (hydroxypropylcellulose) (HPC)
[9] = dose: 240.0 mg/kg/injection, schedule: Q01DX005 (ip), vehicle: Klucel (hydroxypropylcellulose) (HPC)

## CCn1c(Cl)c(C=O)c2ccccc21
dose: 100.0 mg/kg/injection, schedule: Q01DX001 (ip), vehicle: Klucel (hydroxypropylcellulose) (HPC)
  T/C: 100 % of control
dose: 200.0 mg/kg/injection, schedule: Q01DX001 (ip), vehicle: Klucel (hydroxypropylcellulose) (HPC)
  T/C: 92 % of control
dose: 400.0 mg/kg/injection, schedule: Q01DX001 (ip), vehicle: Klucel (hydroxypropylcellulose) (HPC)
  T/C: 95 % of control

## NC(=O)C1=NOC(C(N)=O)C1C1OC(CO)C(O)C1O (stereo not drawn)
dose: 25.0 mg/kg/injection, schedule: Q01DX005 (ip), vehicle: other
  T/C: 98 % of control
dose: 50.0 mg/kg/injection, schedule: Q01DX005 (ip), vehicle: other
  T/C: 97 % of control
dose: 100.0 mg/kg/injection, schedule: Q01DX005 (ip), vehicle: other
  T/C: 95 % of control
dose: 200.0 mg/kg/injection, schedule: Q01DX005 (ip), vehicle: other
  T/C: 105 % of control

## Cc1ncc(N)c2c1OC(C)(C)OC2
dose: 12.5 mg/kg/injection, schedule: Q01DX005 (ip), vehicle: saline with Tween-80
  T/C: 102 % of control
dose: 25.0 mg/kg/injection, schedule: Q01DX005 (ip), vehicle: saline with Tween-80
  T/C: 103 % of control
[1]
  T/C: 99 % of control and 101 % of control

## CCC(CC)c1ccccn1
[2]
  T/C: 101 % of control
dose: 100.0 mg/kg/injection, schedule: Q04DX003 (ip), vehicle: saline
  T/C: 122 % of control
[3]
  T/C: 105 % of control

## Oc1ccc(C2Oc3ccccc3C=C2c2ccccc2)cc1 (stereo not drawn)
[1]
  T/C: 94 % of control
[4]
  T/C: 89 % of control
[5]
  T/C: 96 % of control

## CN1CC(O)C2=CC(=O)C(=O)C(I)=C21 (stereo not drawn)
dose: 30.0 mg/kg/injection, schedule: Q01DX005 (ip), vehicle: saline + Tween-80 + alcohol
  T/C: 108 % of control
[6]
  T/C: 109 % of control
dose: 60.0 mg/kg/injection, schedule: Q01DX005 (ip), vehicle: saline + Tween-80 + alcohol
  T/C: 101 % of control
dose: 240.0 mg/kg/injection, schedule: Q01DX005 (ip), vehicle: saline + Tween-80 + alcohol
  T/C: 114 % of control

## CC(C)N1C(=O)C2C3C=CC(C3)C2C1=O (stereo not drawn)
dose: 25.0 mg/kg/injection, schedule: Q04DX002 (ip), vehicle: saline with Tween-80
  T/C: 94 % of control
dose: 50.0 mg/kg/injection, schedule: Q04DX002 (ip), vehicle: saline with Tween-80
  T/C: 108 % of control

## COC(=O)C(NC(=O)C(NC(=O)c1c2nc3c(C(=O)NC(C(=O)NC(C(=O)OC)C(C)C)C(C)OC(C)=O)ccc(C)c3oc-2c(C)c(=O)c1N)C(C)OC(C)=O)C(C)C (stereo not drawn)
dose: 0.05 mg/kg/injection, schedule: Q01DX009 (ip), vehicle: water
  T/C: 107 % of control
dose: 0.1 mg/kg/injection, schedule: Q01DX009 (ip), vehicle: water
  T/C: 107 % of control
dose: 0.2 mg/kg/injection, schedule: Q01DX009 (ip), vehicle: water
  T/C: 100 % of control
dose: 0.4 mg/kg/injection, schedule: Q01DX009 (ip), vehicle: water
  T/C: 97 % of control
dose: 0.8 mg/kg/injection, schedule: Q01DX009 (ip), vehicle: water
  T/C: 100 % of control
dose: 1.6 mg/kg/injection, schedule: Q01DX009 (ip), vehicle: water
  T/C: 100 % of control and 88 % of control
dose: 3.2 mg/kg/injection, schedule: Q01DX009 (ip), vehicle: water
  T/C: 97 % of control
dose: 6.4 mg/kg/injection, schedule: Q01DX009 (ip), vehicle: water
  T/C: 97 % of control
dose: 12.8 mg/kg/injection, schedule: Q01DX009 (ip), vehicle: water
  T/C: 92 % of control

## C=C1C(OC(=O)c2ccccc2)C2[C@@H](OC(=O)CC)[C@@H](C)C[C@]2(O)C(=O)[C@@H](C)/C=C/C(C)(C)C(=O)C(O)[C@H]1OC(=O)C(C)C (stereo partly drawn)
dose: 60.0 mg/kg/injection, schedule: Q01DX005 (ip), vehicle: saline with Tween-80
  T/C: 102 % of control
dose: 120.0 mg/kg/injection, schedule: Q01DX005 (ip), vehicle: saline with Tween-80
  T/C: 91 % of control

## CC1=C(C)CP(=O)(c2ccccc2)C1
dose: 25.0 mg/kg/injection, schedule: Q01DX009 (ip), vehicle: saline
  T/C: 96 % of control
dose: 50.0 mg/kg/injection, schedule: Q01DX009 (ip), vehicle: saline
  T/C: 93 % of control
[2]
  T/C: 95 % of control
[3]
  T/C: 95 % of control

## CCOC(=O)c1ccc(NC(=O)Nc2ccc(NC(C)=O)cc2)cc1
dose: 15.0 mg/kg/injection, schedule: Q01DX005 (ip), vehicle: Klucel (hydroxypropylcellulose) (HPC)
  T/C: 95 % of control
dose: 30.0 mg/kg/injection, schedule: Q01DX005 (ip), vehicle: Klucel (hydroxypropylcellulose) (HPC)
  T/C: 96 % of control
[7]
  T/C: 87 % of control and 88 % of control and 93 % of control
[8]
  T/C: 87 % of control
[9]
  T/C: 87 % of control

## O=C1CN2Cc3c(sc4c3CCCC4)N=C2N1
[6]
  T/C: 106 % of control
dose: 100.0 mg/kg/injection, schedule: Q01DX005 (ip), vehicle: Klucel (hydroxypropylcellulose) (HPC)
  T/C: 102 % of control
dose: 200.0 mg/kg/injection, schedule: Q01DX005 (ip), vehicle: Klucel (hydroxypropylcellulose) (HPC)
  T/C: 99 % of control

## CC(C)(C)SS(=O)(=O)C(C)(C)C
[7]
  T/C: 103 % of control
[8]
  T/C: 106 % of control
[9]
  T/C: 105 % of control

## CCOC(=O)c1cc2c(cc1O)C1CC=C(C)[C@@H]3CCO[C@](OC)(C2)[C@]13C(=O)OC (stereo partly drawn)
dose: 6.25 mg/kg/injection, schedule: Q01DX001 (ip), vehicle: saline with Tween-80
  T/C: 106 % of control
dose: 12.5 mg/kg/injection, schedule: Q01DX001 (ip), vehicle: saline with Tween-80
  T/C: 101 % of control
dose: 25.0 mg/kg/injection, schedule: Q01DX001 (ip), vehicle: saline with Tween-80
  T/C: 111 % of control
dose: 50.0 mg/kg/injection, schedule: Q01DX001 (ip), vehicle: saline with Tween-80
  T/C: 100 % of control

## c1ccc(CN2COC3CCCCC32)cc1 (stereo not drawn)
dose: 25.0 mg/kg/injection, schedule: Q01DX005 (ip), vehicle: saline
  T/C: 107 % of control and 108 % of control
dose: 50.0 mg/kg/injection, schedule: Q01DX005 (ip), vehicle: saline
  T/C: 101 % of control and 105 % of control and 119 % of control
dose: 100.0 mg/kg/injection, schedule: Q01DX005 (ip), vehicle: saline
  T/C: 101 % of control and 107 % of control and 121 % of control
dose: 200.0 mg/kg/injection, schedule: Q01DX005 (ip), vehicle: saline
  T/C: 103 % of control and 105 % of control

## COC(=O)COc1cc2c(cc1C(C)c1ccc(O)cc1)OCO2 (stereo not drawn)
[1]
  T/C: 100 % of control
[4]
  T/C: 102 % of control
[5]
  T/C: 90 % of control

## COC(=O)CC1c2ccc3cc(OC)ccc3c2CCC1(C)C(=O)OC (stereo not drawn)
[1]
  T/C: 103 % of control
[4]
  T/C: 96 % of control
[5]
  T/C: 98 % of control

## CCC(C)C(NC(=O)C(Cc1c[nH]c2ccccc12)NC(=O)OC(C)(C)C)C(=O)OC (stereo not drawn)
dose: 12.5 mg/kg/injection, schedule: Q01DX009 (ip), vehicle: other
  T/C: 99 % of control
dose: 25.0 mg/kg/injection, schedule: Q01DX009 (ip), vehicle: other
  T/C: 104 % of control
dose: 50.0 mg/kg/injection, schedule: Q01DX009 (ip), vehicle: other
  T/C: 104 % of control
dose: 100.0 mg/kg/injection, schedule: Q01DX009 (ip), vehicle: other
  T/C: 106 % of control
dose: 200.0 mg/kg/injection, schedule: Q01DX009 (ip), vehicle: other
  T/C: 110 % of control

## COc1cc2c(c(OC)c1OC)-c1ccc(OC)c(=O)cc1[C@@H](NC(=O)c1ccccc1)CC2
dose: 0.5 mg/kg/injection, schedule: Q01DX009 (ip), vehicle: Klucel (hydroxypropylcellulose) (HPC)
  T/C: 156 % of control
dose: 0.5 mg/kg/injection, schedule: Q01DX009 (ip), vehicle: saline with Tween-80
  T/C: 121 % of control
dose: 0.63 mg/kg/injection, schedule: Q01DX009 (ip), vehicle: distilled water + Tween-80
  T/C: 154 % of control
dose: 1.0 mg/kg/injection, schedule: Q01DX009 (ip), vehicle: Klucel (hydroxypropylcellulose) (HPC)
  T/C: 182 % of control
dose: 1.25 mg/kg/injection, schedule: Q01DX009 (ip), vehicle: distilled water + Tween-80
  T/C: 218 % of control
dose: 2.0 mg/kg/injection, schedule: Q01DX009 (ip), vehicle: saline with Tween-80
  T/C: 165 % of control
dose: 2.5 mg/kg/injection, schedule: Q01DX009 (ip), vehicle: distilled water + Tween-80
  T/C: 261 % of control
dose: 4.0 mg/kg/injection, schedule: Q01DX009 (ip), vehicle: saline with Tween-80
  T/C: 86 % of control
dose: 5.0 mg/kg/injection, schedule: Q04DX003 (ip), vehicle: saline sonified
  T/C: 109 % of control
dose: 5.0 mg/kg/injection, schedule: Q04DX003 (ip), vehicle: saline with Tween-80
  T/C: 186 % of control
dose: 7.5 mg/kg/injection, schedule: Q04DX003 (ip), vehicle: saline sonified
  T/C: 154 % of control
